These results are taken from patent publication US7888369B2, “Oxazoloisoquinoline derivatives as thrombin receptor antagonists” (Schering Corporation, priority 2005, dated 2011).

The target of the assay is T1, thrombin receptor (Homo sapiens, UniProt P25116).
T1 construct: tissue North Jersey Blood Center (East Orange, N.J.); host or cells: platelet membranes prepared from platelet concentrates
T1 sequence (P25116 22-425): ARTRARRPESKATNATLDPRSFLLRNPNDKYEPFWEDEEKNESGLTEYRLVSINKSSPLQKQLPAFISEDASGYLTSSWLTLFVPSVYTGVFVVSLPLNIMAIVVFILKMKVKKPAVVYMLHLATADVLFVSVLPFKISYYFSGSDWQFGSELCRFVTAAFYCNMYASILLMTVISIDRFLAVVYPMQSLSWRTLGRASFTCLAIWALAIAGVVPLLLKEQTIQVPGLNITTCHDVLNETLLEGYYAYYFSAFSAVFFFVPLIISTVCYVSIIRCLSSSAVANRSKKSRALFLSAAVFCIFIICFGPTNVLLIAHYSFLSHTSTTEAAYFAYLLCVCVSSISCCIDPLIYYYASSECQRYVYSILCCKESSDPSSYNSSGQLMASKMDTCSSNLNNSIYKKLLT
As to the kind of experiment: High throughput thrombin receptor radioligand binding assay ([3H]haTRAP, platelet membranes). The procedure: In Vitro Testing Procedure for Thrombin Receptor Antagonists:
Preparation of [^3H]ha TRAP
A(pF-F)R(ChA)(hR)(I2—Y)—NH2 (1.03 mg) and 10% Pd/C (5.07 mg) were suspended in DMF (250 μl) and diisopropylethylamine (10 μl). The vessel was attached to the tritium line, frozen in liquid nitrogen and evacuated. Tritium gas (342 mCi) was then added to the flask, which was stirred at room temperature for 2 hours. At the completion of the reaction, the excess tritium was removed and the reacted peptide solution was diluted with DMF (0.5 ml) and filtered to remove the catalyst. The collected DMF solution of the crude peptide was diluted with water and freeze dried to remove the labile tritium. The solid peptide was redissolved in water and the freeze drying process repeated. The tritiated peptide ([^3H]haTRAP) was dissolved in 0.5 ml of 0.1% aqueous TFA and purified by HPLC using the following conditions: column, Vydac™ C18, 25 cm×9.4 mm I.D.; mobile phase, (A) 0.1% TFA in water, (B) 0.1% TFA in CH3CN; gradient, (A/B) from 100/0 to 40/60 over 30 min; flow rate, 5 ml/min; detection, UV at 215 nm. The radiochemical purity of [^3H]haTRAP was 99% as analyzed by HPLC. A batch of 14.9 mCi at a specific activity of 18.4 Ci/mmol was obtained.
Preparation of Platelet Membranes
Platelet membranes were prepared using a modification of the method of Natarajan et al. (Natarajan et al, Int. J. Peptide Protein Res. 45:145-151 (1995)) from 20 units of platelet concentrates obtained from the North Jersey Blood Center (East Orange, N.J.) within 48 hours of collection. All steps were carried out at 4° C. under approved biohazard safety conditions. Platelets were centrifuged at 100×g for 20 minutes at 4° C. to remove red cells. The supernatants were decanted and centrifuged at 3000×g for 15 minutes to pellet platelets. Platelets were re-suspended in 10 mM Tris-HCl, pH 7.5, 150 mM NaCl, 5 mM EDTA, to a total volume of 200 ml and centrifuged at 4400×g for 10 minutes. This step was repeated two additional times. […] Protein concentration was determined by a Lowry assay (Lowry et al., J. Biol. Chem., 193:265-275 (1951)). […]

pKi: −log10 of the molar value.

With `O=C1OC[C@@H]2C(/C=C/c3ccc(-c4cccc(F)c4)cn3)c3ccccc3CN12` (single isomer, unassigned) [Compound 12, 10-{2-[5-(3-Fluoro-phenyl)-pyridin-2-yl]-vinyl}-1,5,10,10a-tetrahydro-oxazolo[3,4-b]isoquinolin-3-one], the inhibition – broadly, the percentage by which the read-out fell short of the control – at 1 µM (at 1 μM, read-out: Thrombin Receptor Antagonist Activity: % inhibition) was 27%.
With `O=C1OC[C@@H]2C(/C=C/c3ccc(-c4cccc(F)c4)cn3)c3ccccc3CN12` (single isomer, unassigned) [Compound 13, 10-{2-[5-(3-Fluoro-phenyl)-pyridin-2-yl]-vinyl}-1,5,10,10a-tetrahydro-oxazolo[3,4-b]isoquinolin-3-one], for the setting “at 1 μM”, the “Thrombin Receptor Antagonist Activity: % inhibition” value is listed as 15%.
On to `O=C1OC[C@@H]2C(/C=C/c3ccc(-c4cccc(F)c4)cn3)C3CCCCC3CN12` (stereo partly drawn) [Compound 16], for which the negative logarithm of the Ki (pKi) (commonly the Ki on a negative log10 scale, so that one unit is a factor of ten) is 7.92.
